According to patent EP1433789A1, “Pyrrolopyrazines and their use as selective apoptosis inducers” (Aponetics AG, priority 2002, dated 2004):

Tests used:
Format in all cases: cell-based, human
[1] = system: PC-3; assay: Hoechst 33342 nuclear staining (Table 3); design: key: 0 relating to no activity; 1 relating to weak activity comprising less than 50% of the cells; score 2 relating to strong activity comprising more than 50% of the cells
Method in brief: (§1)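 Adherent cells (3-5×10^3, pre-spread 24 h) or suspension cells (8-10×10^3) treated with compounds at 10, 3, 1 and 0.3 µM for 24 or 48 h, then Hoechst 33342 stained for 30 min. Apoptotic nuclear morphology scored by fluorescence microscopy: 0 none, 1 weak (<50% cells), 2 strong (>50% cells).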

[2] = system: SKMEL 1; assay: Hoechst 33342 nuclear staining (Table 3); design: key: 0 relating to no activity; 1 relating to weak activity comprising less than 50% of the cells; score 2 relating to strong activity comprising more than 50% of the cells
Method in brief: as §1

[3] = system: H9; assay: Hoechst 33342 nuclear staining (Table 3); design: key: 0 relating to no activity; 1 relating to weak activity comprising less than 50% of the cells; score 2 relating to strong activity comprising more than 50% of the cells
Method in brief: as §1

[4] = system: K562; assay: Caspase dependencies (Hoechst 33342 readout with zVAD / zFA); design: key: 0: no effect; 1: weak effect; 2: strong effect
Description: This assay is performed in 96 well tissue culture plates. Appropriate number of cells (adherent cells: 3 - 5*10^3, suspension cells: 8 - 10*10^3) are being seeded out in 80 µl complete medium. Adherent cells are incubated for 24 h for proper spreading out before addition of test compounds while suspension cells are immediately treated with test compounds after seeding out. The test compounds are added in 20 µl complete medium containing max 5% DMSO. The final compound concentrations in the assays are 10 µM, 3 µM,1 µM and 0.3 µM, respectively. After 24 h or 48 h incubation at culture conditions, 10 µl medium containing Hoechst 33342 dye (Sigma B-2261) at 2-5 µg/ml are added to each well. The assay plates are then further incubated for 30 minutes and subsequently analyzed with a standard inverted fluorescence microscope. The readout allows the determination of the fraction of apoptotic nuclei as well as other morphological criteria specific for apoptosis as a function of the treatment. The following scores are used: 0 relating to no activity, 1 relating to weak activity comprising less than 50% of the cells and score 2 relating to strong activity comprising more than 50% of the cells.
Caspase dependencies are being evaluated by combining the compound treatment with the pan-caspase inhibitor zVAD or its control peptide zFA (ICN Pharmaceuticals # FK009 and FK029, respectively). Both peptides are being used at 20 µM concentration. In case of caspase dependencies a clear inhibition of the specific readout in all apoptosis tests should be detected. By comparing the readout of zVAD and zFA treated samples with the compound control it is possible to detect caspase resp. cystein proteinase dependencies. In case of inhibition by zVAD but not by zFA a clear caspase dependency is obvious. An inhibition by zVAD as well as by zFA points towards the involvement of cystein proteinases in the apoptotic cascade. […]

CC1(C)Cc2ccccc2-c2c(Br)c3nc4ccccc4nc3n21 [No. 2, 13-Bromo-6,6-dimethyl-5,6-dihydro-6a,7,12-triaza-dibenzo[a,h]fluorene]
Hoechst 33342 nuclear staining (fraction of apoptotic nuclei), score ([1]; PC-3, 24h, 0.3 µM): 0 | Hoechst 33342 nuclear staining (fraction of apoptotic nuclei), score ([1]; PC-3, 24h, 1 µM): 0 | Hoechst 33342 nuclear staining (fraction of apoptotic nuclei), score ([1]; PC-3, 24h, 3 µM): 0 | Hoechst 33342 nuclear staining (fraction of apoptotic nuclei), score ([1]; PC-3, 24h, 10 µM): 0 | Hoechst 33342 nuclear staining (fraction of apoptotic nuclei), score ([1]; PC-3, 48h, 0.3 µM): 0 | Hoechst 33342 nuclear staining (fraction of apoptotic nuclei), score ([1]; PC-3, 48h, 1 µM): 0 | Hoechst 33342 nuclear staining (fraction of apoptotic nuclei), score ([1]; PC-3, 48h, 3 µM): 0 | Hoechst 33342 nuclear staining (fraction of apoptotic nuclei), score ([1]; PC-3, 48h, 10 µM): 2 (score 2 relating to strong activity comprising more than 50% of the cells) | Hoechst 33342 nuclear staining (fraction of apoptotic nuclei), score ([2]; SKMEL 1, 24h, 0.3 µM): 0 | Hoechst 33342 nuclear staining (fraction of apoptotic nuclei), score ([2]; SKMEL 1, 24h, 1 µM): 0 | Hoechst 33342 nuclear staining (fraction of apoptotic nuclei), score ([2]; SKMEL 1, 24h, 3 µM): 0 | Hoechst 33342 nuclear staining (fraction of apoptotic nuclei), score ([2]; SKMEL 1, 24h, 10 µM): 0 | Hoechst 33342 nuclear staining (fraction of apoptotic nuclei), score ([2]; SKMEL 1, 48h, 0.3 µM): 0 | Hoechst 33342 nuclear staining (fraction of apoptotic nuclei), score ([2]; SKMEL 1, 48h, 1 µM): 0 | Hoechst 33342 nuclear staining (fraction of apoptotic nuclei), score ([2]; SKMEL 1, 48h, 3 µM): 0 | Hoechst 33342 nuclear staining (fraction of apoptotic nuclei), score ([2]; SKMEL 1, 48h, 10 µM): 0 | Hoechst 33342 nuclear staining (fraction of apoptotic nuclei), score ([3]; H9, 24h, 0.3 µM): 0 | Hoechst 33342 nuclear staining (fraction of apoptotic nuclei), score ([3]; H9, 24h, 1 µM): 0 | Hoechst 33342 nuclear staining (fraction of apoptotic nuclei), score ([3]; H9, 24h, 3 µM): 0 | Hoechst 33342 nuclear staining (fraction of apoptotic nuclei), score ([3]; H9, 24h, 10 µM): 0 | Hoechst 33342 nuclear staining (fraction of apoptotic nuclei), score ([3]; H9, 48h, 0.3 µM): 0 | Hoechst 33342 nuclear staining (fraction of apoptotic nuclei), score ([3]; H9, 48h, 1 µM): 0 | Hoechst 33342 nuclear staining (fraction of apoptotic nuclei), score ([3]; H9, 48h, 3 µM): 0 | Hoechst 33342 nuclear staining (fraction of apoptotic nuclei), score ([3]; H9, 48h, 10 µM): 0 | nuclear fragmentation visualized by Hoechst 33342 staining ([4]; K562, 24h, conc 10, no peptide): 2 | nuclear fragmentation visualized by Hoechst 33342 staining ([4]; K562, 24h, conc 10, with zFA 20 µM): 2 | nuclear fragmentation visualized by Hoechst 33342 staining ([4]; K562, 24h, conc 10, with zVAD 20 µM): 2 | nuclear fragmentation visualized by Hoechst 33342 staining ([4]; K562, 48h, conc 10, no peptide): 2 | nuclear fragmentation visualized by Hoechst 33342 staining ([4]; K562, 48h, conc 10, with zFA 20 µM): 2 | nuclear fragmentation visualized by Hoechst 33342 staining ([4]; K562, 48h, conc 10, with zVAD 20 µM): 2
